Measured values from patent US20230146675A1, “PYRIMIDO[5,4-d]PYRIMIDINE DERIVATIVES AS ENT INHIBITORS FOR THE TREATMENT OF CANCERS, AND COMBINATION THEREOF WITH ADENOSINE RECEPTOR ANTAGONISTS” (ITEOS BELGIUM SA, priority 2020, published 2023).

Target: T1, human ENT1 (Homo sapiens, UniProt Q99808)
T1 sequence (Q99808 1-456): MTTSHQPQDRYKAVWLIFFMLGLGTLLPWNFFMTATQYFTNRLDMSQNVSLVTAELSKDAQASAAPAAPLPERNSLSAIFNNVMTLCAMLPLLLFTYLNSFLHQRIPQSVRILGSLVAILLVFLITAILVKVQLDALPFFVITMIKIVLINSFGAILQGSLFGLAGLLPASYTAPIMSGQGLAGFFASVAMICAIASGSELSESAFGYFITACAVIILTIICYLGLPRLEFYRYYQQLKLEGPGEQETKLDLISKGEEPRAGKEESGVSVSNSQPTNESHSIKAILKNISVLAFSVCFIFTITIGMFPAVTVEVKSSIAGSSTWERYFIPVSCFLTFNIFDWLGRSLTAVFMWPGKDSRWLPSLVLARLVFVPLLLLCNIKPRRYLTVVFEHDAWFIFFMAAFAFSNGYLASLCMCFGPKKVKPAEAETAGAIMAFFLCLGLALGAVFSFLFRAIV
Experiment: ENT1 binding assay (competition with Sahenta-DY647 on JAR cells)
Set-up: JAR cells expressing ENT1 were bought from ATCC; host or cells: JAR cells
Details: binned IC50
How it was run: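 JAR cells were incubated with test compounds and the fluorescent ligand Sahenta-DY647 in competition. Plates were washed twice by centrifugation (4 min, 400 rcf, 4 °C). Binding potency was derived from the final fluorescence.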

IC50 [nM]	SMILES
< 100	CCOCCN(CCOCC)c1nc(N2CCN(C)C(=O)C2)c2nc(N(CCOCC)CCOCC)nc(N(C)Cc3ccccc3)c2n1 [Compound 232, 4-(8-(benzyl(methyl)amino)-2,6-bis(bis(2-ethoxyethyl)amino)pyrimido[5,4-d]pyrimidin-4-yl)-1-methylpiperazin-2-one]
< 100	COCCN(CCOC)c1nc(N2CCN(C)C(=O)C2)c2nc(N(CCOC)CCOC)nc(N(C)Cc3cccc(F)c3)c2n1 [Compound 233, 4-(2,6-bis(bis(2-methoxyethyl)amino)-8-((3-fluorobenzyl)(methyl)amino)pyrimido[5,4-d]pyrimidin-4-yl)-1-methylpiperazin-2-one]
< 100	COCCN(CCOC)c1nc(N2CCN(C)C(=O)C2)c2nc(N(CCOC)CCOC)nc(N(C)Cc3cccc(Cl)c3)c2n1 [Compound 234, 4-(2,6-bis(bis(2-methoxyethyl)amino)-8-((3-chlorobenzyl)(methyl)amino)pyrimido[5,4-d]pyrimidin-4-yl)-1-methylpiperazin-2-one]
< 100	COCCN(CCOC)c1nc(N2CCN(C)C(=O)C2)c2nc(N(CCOC)CCOC)nc(N(C)Cc3cccc(OC)c3)c2n1 [Compound 235, 4-(2,6-bis(bis(2-methoxyethyl)amino)-8-((3-methoxybenzyl)(methyl)amino)pyrimido[5,4-d]pyrimidin-4-yl)-1-methylpiperazin-2-one]
< 100	COCCN(CCOC)c1nc(N2CCN(C)C(=O)C2)c2nc(N(CCOC)CCOC)nc(N(C)Cc3cccc(OC(F)(F)F)c3)c2n1 [Compound 236, 4-(2,6-bis(bis(2-methoxyethyl)amino)-8-(methyl(3-(trifluoromethoxy)benzyl)amino)pyrimido[5,4-d]pyrimidin-4-yl)-1-methylpiperazin-2-one]
< 100	COCCN(CCOC)c1nc(N2CCN(C)C(=O)C2)c2nc(N(CCOC)CCOC)nc(N(C)Cc3cccc(C#N)c3)c2n1 [Compound 237, 3-(((2,6-bis(bis(2-methoxyethyl)amino)-8-(4-methyl-3-oxopiperazin-1-yl)pyrimido[5,4-d]pyrimidin-4-yl)(methyl)amino)methyl)benzonitrile]
< 100	COCCN(CCOC)c1nc(N2CCN(C)C(=O)C2)c2nc(N(CCOC)CCOC)nc(N(C)Cc3ccc(F)c(C#N)c3)c2n1 [Compound 238, 5-(((2,6-bis(bis(2-methoxyethyl)amino)-8-(4-methyl-3-oxopiperazin-1-yl)pyrimido[5,4-d]pyrimidin-4-yl)(methyl)amino)methyl)-2-fluorobenzonitrile]
< 100	COCCN(CCOC)c1nc(N2CCN(C)C(=O)C2)c2nc(N(CCOC)CCOC)nc(N(C)Cc3ccc(F)c(F)c3)c2n1 [Compound 239, 4-(2,6-bis(bis(2-methoxyethyl)amino)-8-((3,4-difluorobenzyl)(methyl)amino)pyrimido[5,4-d]pyrimidin-4-yl)-1-methylpiperazin-2-one]
100 to 500	COCCN(CCOC)c1nc(N2CCN(C)C(=O)C2)c2nc(N(CCOC)CCOC)nc(N(C)Cc3cccc(C(N)=O)c3)c2n1 [Compound 240, 3-(((2,6-bis(bis(2-methoxyethyl)amino)-8-(4-methyl-3-oxopiperazin-1-yl)pyrimido[5,4-d]pyrimidin-4-yl)(methyl)amino)methyl)benzamide]
100 to 500	COCCN(CCOC)c1nc(N2CCN(c3ncn(C)n3)CC2)c2nc(N(CCOC)CCOC)nc(N(C)Cc3cccc(F)c3)c2n1 [Compound 241, N4-(3-fluorobenzyl)-N2,N2,N6,N6-tetrakis(2-methoxyethyl)-N4-methyl-8-(4-(1-methyl-1H-1,2,4-triazol-3-yl)piperazin-1-yl)pyrimido[5,4-d]pyrimidine-2,4,6-triamine]
500 to 1000	COCCN(CCOC)c1nc(N2CCN(c3ncn(C)n3)CC2)c2nc(N(CCOC)CCOC)nc(N(C)Cc3cccc(Cl)c3)c2n1 [Compound 242, N4-(3-chlorobenzyl)-N2,N2,N6,N6-tetrakis(2-methoxyethyl)-N4-methyl-8-(4-(1-methyl-1H-1,2,4-triazol-3-yl)piperazin-1-yl)pyrimido[5,4-d]pyrimidine-2,4,6-triamine]
< 100	COCCN(CCOC)c1nc(N2CCN(c3ncn(C)n3)CC2)c2nc(N(CCOC)CCOC)nc(N(C)Cc3cccc(OC)c3)c2n1 [Compound 243, N4-(3-methoxybenzyl)-N2,N2,N6,N6-tetrakis(2-methoxyethyl)-N4-methyl-8-(4-(1-methyl-1H-1,2,4-triazol-3-yl)piperazin-1-yl)pyrimido[5,4-d]pyrimidine-2,4,6-triamine]
100 to 500	COCCN(CCOC)c1nc(N2CCN(c3ncn(C)n3)CC2)c2nc(N(CCOC)CCOC)nc(N(C)Cc3cccc(C#N)c3)c2n1 [Compound 244, 3-(((2,6-bis(bis(2-methoxyethyl)amino)-8-(4-(1-methyl-1H-1,2,4-triazol-3-yl)piperazin-1-yl)pyrimido[5,4-d]pyrimidin-4-yl)(methyl)amino)methyl)benzonitrile]
500 to 1000	COCCN(CCOC)c1nc(N2CCN(c3ncn(C)n3)CC2)c2nc(N(CCOC)CCOC)nc(N(C)Cc3ccc(F)c(C#N)c3)c2n1 [Compound 245, 5-(((2,6-bis(bis(2-methoxyethyl)amino)-8-(4-(1-methyl-1H-1,2,4-triazol-3-yl)piperazin-1-yl)pyrimido[5,4-d]pyrimidin-4-yl)(methyl)amino)methyl)-2-fluorobenzonitrile]
500 to 1000	COCCN(CCOC)c1nc(N2CCN(c3ncn(C)n3)CC2)c2nc(N(CCOC)CCOC)nc(N(C)Cc3cccc(S(C)(=O)=O)c3)c2n1 [Compound 246, N2,N2,N6,N6-tetrakis(2-methoxyethyl)-N4-methyl-8-(4-(1-methyl-1H-1,2,4-triazol-3-yl)piperazin-1-yl)-N4-(3-(methylsulfonyl)benzyl)pyrimido[5,4-d]pyrimidine-2,4,6-triamine]
100 to 500	COCCN(CCOC)c1nc(N2CCN(c3ncn(C)n3)CC2)c2nc(N(CCOC)CCOC)nc(N(C)Cc3ccc(F)c(F)c3)c2n1 [Compound 247, N4-(3,4-difluorobenzyl)-N2,N2,N6,N6-tetrakis(2-methoxyethyl)-N4-methyl-8-(4-(1-methyl-1H-1,2,4-triazol-3-yl)piperazin-1-yl)pyrimido[5,4-d]pyrimidine-2,4,6-triamine]
100 to 500	COCCN(CCOC)c1nc(N2CCN(c3ncn(C)n3)CC2)c2nc(N(CCOC)CCOC)nc(N(C)Cc3cccc(S(N)(=O)=O)c3)c2n1 [Compound 248, 3-(((2,6-bis(bis(2-methoxyethyl)amino)-8-(4-(1-methyl-1H-1,2,4-triazol-3-yl)piperazin-1-yl)pyrimido[5,4-d]pyrimidin-4-yl)(methyl)amino)methyl)benzenesulfonamide]
100 to 500	COCCN(CCOC)c1nc(N2CCN(c3ncn(C)n3)CC2)c2nc(N(CCOC)CCOC)nc(N(C)Cc3cccc(C(N)=O)c3)c2n1 [Compound 249, 3-(((2,6-bis(bis(2-methoxyethyl)amino)-8-(4-(1-methyl-1H-1,2,4-triazol-3-yl)piperazin-1-yl)pyrimido[5,4-d]pyrimidin-4-yl)(methyl)amino)methyl)benzamide]
100 to 500	COCCN(CCOC)c1nc(N2CCn3cncc3C2)c2nc(N(CCOC)CCOC)nc(N3CCN(C)C(=O)C3)c2n1 [Compound 250, 4-(2,6-bis(bis(2-methoxyethyl)amino)-8-(5,6-dihydroimidazo[1,5-a]pyrazin-7(8H)-yl)pyrimido[5,4-d]pyrimidin-4-yl)-1-methylpiperazin-2-one]
100 to 500	COCCN(CCOC)c1nc(N2CCn3nncc3C2)c2nc(N(CCOC)CCOC)nc(N3CCN(C)C(=O)C3)c2n1 [Compound 251, 4-(2,6-bis(bis(2-methoxyethyl)amino)-8-(6,7-dihydro-[1,2,3]triazolo[1,5-a]pyrazin-5(4H)-yl)pyrimido[5,4-d]pyrimidin-4-yl)-1-methylpiperazin-2-one]
< 100	COCCN(CCOC)c1nc(N2CCc3nn(C)cc3C2)c2nc(N(CCOC)CCOC)nc(N3CCN(C)C(=O)C3)c2n1 [Compound 252, 4-(2,6-bis(bis(2-methoxyethyl)amino)-8-(2-methyl-2,4,6,7-tetrahydro-5H-pyrazolo[4,3-c]pyridin-5-yl)pyrimido[5,4-d]pyrimidin-4-yl)-1-methylpiperazin-2-one]
100 to 500	COCCN(CCOC)c1nc(N2CCc3c(ncn3C)C2)c2nc(N(CCOC)CCOC)nc(N3CCN(C)C(=O)C3)c2n1 [Compound 253, 4-(2,6-bis(bis(2-methoxyethyl)amino)-8-(1-methyl-1,4,6,7-tetrahydro-5H-imidazo[4,5-c]pyridin-5-yl)pyrimido[5,4-d]pyrimidin-4-yl)-1-methylpiperazin-2-one]
< 100	COCCN(CCOC)c1nc(N2CCc3nocc3C2)c2nc(N(CCOC)CCOC)nc(N3CCN(C)C(=O)C3)c2n1 [Compound 254, 4-(2,6-bis(bis(2-methoxyethyl)amino)-8-(6,7-dihydroisoxazolo[4,3-c]pyridin-5(4H)-yl)pyrimido[5,4-d]pyrimidin-4-yl)-1-methylpiperazin-2-one]
< 100	COCCN(CCOC)c1nc(N2CCc3c(cnn3C)C2)c2nc(N(CCOC)CCOC)nc(N3CCN(C)C(=O)C3)c2n1 [Compound 255, 4-(2,6-bis(bis(2-methoxyethyl)amino)-8-(1-methyl-1,4,6,7-tetrahydro-5H-pyrazolo[4,3-c]pyridin-5-yl)pyrimido[5,4-d]pyrimidin-4-yl)-1-methylpiperazin-2-one]
